Patent EP1153612A1, “ANTICANCER AGENT POTENTIATORS” (Tsuruo, Takashi, priority 1999, dated 2000)

Tested on: human colon cancer cell HT29
Test: Anticancer therapy in human cancer cell-transplanted nude mouse model (size of tumor lump)
Assay type: in vivo, nude mouse BALB/cAnNCrj-nu/nu
Details: Example 5; intraperitoneally three times every 4 days; etoposide 33 mg/kg, lactacystin 40 mg/kg; in combined use lactacystin 5 hours before etoposide; FIG. 11
Description: A human colon cancer cell HT29 was transplanted subcutaneously to a nude mouse to examine a therapeutic effect of combined use of lactacystin, the proteasome inhibiting agent, with etoposide, the anticancer drug targeting topoisomerase II.
As an experimental animal, the nude mouse BALB/cAnNCrj-nu/nu of 8-week old female (Charles River Laboratories product) was used. In order to form a tumor lump in the nude mouse, 1×10^7 HT29 cells was subcutaneously transplanted. After 8 to 10 days of transplanting, the tumor lump of HT29 cells grew to […] and at this point, the therapy was started. […]
The therapy was conducted by dividing the HT29 tumor-transplanted mice into 4 groups to assign 4 animals to 1 group as follows by administering intraperitoneally three times every 4 days: (1) control group untreated with saline, (2) etoposide 33 mg/kg, (3) lactacystin 40 mg/kg, (4) lactacystin 40 mg/kg and etoposide 33 mg/kg. […] Since start of the therapy, a size of the tumor lump was measured to measure effect of the therapy by administration of drugs once every 4 days. […]
The effect of therapy by simultaneous administration of the proteasome inhibiting agent, lactacystin, and the topoisomerase II-targeting anticancer, doxorubicin was examined. […] After start of treatment, once every 4 to 5 days, the size of the tumor lump was measured to measure the effect of treatment by drug administration.

## CC(=O)N[C@@H](CSC(=O)[C@]1([C@@H](O)C(C)C)NC(=O)[C@H](C)[C@@H]1O)C(=O)O [lactacystin]
  suppression of tumor proliferation (size of the tumor lump): less suppression of tumor proliferation
